{"source": "patent US20140294763A1", "about": "“PEPTIDOMIMETIC PROTEASE INHIBITORS” (priority 2000, published 2014)", "key": {"[1]": {"assay": "XTT metabolic assay to determine replicon cell viability", "conditions": "human", "from_the_text": "(§1) Inflamation Research. […] It is assumed that the level of GAPDH mRNA, which is a constitutively expressed housekeeping gene, is the same in all viable cells. […] Thus, it is postulated, as done by others using TaqMan® technology to determine the levels of particular mRNAs in human cells, that GAPDH mRNA levels are proportional to viable cell numbers (VCN) in any given sample, with the relationship of VCN=2^̂(40−CtGAPDH mRNA). The VCN is computed for each of the Replicon Assay sample wells, and then we divide the HCV Replicon RNA copy number for a specific well by the VCN for that well. Once computed, this ratio is used instead of the HCV copy number to compute inhibition (“Avg. Inh using ratio”; FIG. 14A). […] In the Replicon Assay, it is assumed that the measured inhibition of HCV RNA replicon accumulation is the sum of the actual inhibition of HCV RNA replicon accumulation and the apparent inhibition of HCV RNA replicon accumulation due to cytoxicity. […] Thus, the true anti-HCV activity of a compound in the Replicon Assay corrected for general cytotoxicity can be estimated by dividing the number of HCV replicon RNA molecules measured in each sample by the VCN, thus normalizing to the number of viable cells in each sample. […] In FIG. 14A, “Avg."}, "[2]": {"test_system": "HCV subgenomic RNA replicon in Huh7 cells", "assay": "HCV subgenomic RNA replicon assay (Replicon Assay), TaqMan RT-PCR of replicon RNA after 48 h treatment", "type": "cell-based, hepatitis C virus (HCV)", "conditions": "for Inhibition of replicon RNA accumulation: 48 hour treatment", "from_the_text": "The Replicon Assay measures the amount of HCV subgenomic RNA (replicon RNA) remaining in replicon cells (Lohman et al. Science 285:110-113 (1999)) after two days of drug treatment relative to the amount of replicon RNA in untreated cells. In this assay, the potency of compounds as HCV antiviral drugs is directly proportional to the level of inhibition of replicon RNA accumulation.\nThe Replicon Assay employing a cell line containing the self-replicating HCV subgenomic RNA (replicon) is described in Lohmann et al. Science 285:110-113 (1999). The Genbank accession number for the sequence of the replicon used in the experiments described herein is listed in this reference as AJ242654. This paper discloses methods for in vitro transcription of RNA from the replicon cDNA, transfection of the replicon RNA into Huh7 cells by electroporation, and selection of cells containing the replicon RNA using the antibiotic G418. Huh7 cells are a hepatoma cell line obtained from Dr. William Mason at Fox Chase Cancer Research Center (Philadelphia). These cells are publicly available from Fox Chase, and have been extensively described in the scientific literature (Nakabayashi at al. Cancer Res. 42:3858-3863 (1982)). In the experiments described herein, all of the template DNA is removed from the in vitro transcribed replicon RNA preparation prior to electroporation of this RNA into Huh7 cells by multiple treatment with DNase (three sequential treatments).\nThe Replicon Assay is performed as described in detail below. Briefly, Replicon cells are placed in 96 well trays at a density of 10,000 cells per well and incubated 37° C. The cells are incubated in DMEM ([…]) supplemented with 10% fetal bovine serum, glutamine, nonessential amino acids, and the antibiotic G418 (0.25 mg/ml). […] Each compound is tested at six to eight different concentrations. […] Each HCV serine protease inhibitor concentration is tested without any added interferon, as well as with the addition of six to eight different interferon doses. Similarly, interferon is tested without any added HCV serine protease inhibitor. After a 48-hour incubation with the compounds, the medium is removed from the plates, and total cellular RNA is extracted from the cells using the RNeasy-96 kit manufactured by Qiagen Inc. (Valencia, Calif.). This RNA is then analyzed by quantitative RT-PCR, or TaqMan® (Applied Biosystems, Foster City Calif.). The TaqMan® RT-PCR target is the neomycin resistance gene in the replicon RNA. The plates are configured so that there are 5 replicates of each drug treatment sample, and 16 replicates of the untreated samples. This permits greater statistical confidence in the quantitative RT-PCR data.\nAnalysis of the Replicon Assay data yields two values that are useful in assessing the potency of potential HCV antiviral agents. At each compound concentration tested, the level of inhibition in replicon RNA accumulation caused by the compound during two days of treatment relative to the amount of replicon RNA in untreated cells is determined. This is reported as percent inhibition. […] The IC50 is the value used to rank individual compounds tested in this assay based on their potency as HCV antiviral agents. Simple IC50 determinations are inadequate to assess the utility of compounds used in combination.\nThe Replicon Assay is used to measure the capacity of potential HCV antiviral compounds to inhibit the accumulation of a HCV subgenomic RNA replicon molecule in a Huh7 cell line (Lohmann et al. Replication of Subgenomic Hepatitis C Virus RNAs in a Hepatoma Cell Line. Science 285, 110-113 (1999))."}, "[3]": {"test_system": "replicon cells (glyceraldehyde-3-phosphate dehydrogenase (GAPDH) mRNA levels)", "assay": "TaqMan quantitative RT-PCR of GAPDH mRNA levels in treated versus untreated replicon cells (cytotoxicity measure)", "conditions": "treated versus untreated cells in the Replicon Assay", "from_the_text": "as §1"}, "[4]": {"conditions": "Hepatitis C virus, Huh-7, 48 h, read-out: IC50 HSPI, antiviral compound used individually, HCV replicon RNA accumulation, 48 h, response-surface fit (Ribavirin corrected for cytotoxicity)"}, "[5]": {"conditions": "read-out: IC50 HSPI, antiviral compound used individually, HCV replicon RNA accumulation, 48 h, response-surface fit (Ribavirin corrected for cytotoxicity)"}}, "note": "Values joined by “and” are separate entries in the source; they are usually repeats but may differ in a detail not shown here. Equal entries are not always repeated. Where two headings read alike, the source gives them in different places.", "data": [{"smiles": "CCC[C@H](NC(=O)[C@@H]1[C@H]2CCC[C@H]2CN1C(=O)[C@@H](NC(=O)[C@@H](NC(=O)c1cnccn1)C1CCCCC1)C(C)(C)C)C(=O)C(=O)NC1CC1", "note": "[Compound CU]", "values": [{"measurement": "CC50", "setting": "[1]; HCV replicon cells (Huh7)", "value": 64700, "unit": "nM"}, {"measurement": "Inhibition of replicon RNA accumulation", "setting": "[2]; Compound CU 0.0123 μM alone (interferon-alpha 2B 0 U)", "value": 5, "unit": "%"}, {"measurement": "Inhibition of replicon RNA accumulation", "setting": "[2]; Compound CU 0.0370 μM alone (interferon-alpha 2B 0 U)", "value": 8, "unit": "%"}, {"measurement": "Inhibition of replicon RNA accumulation", "setting": "[2]; Compound CU 0.1111 μM alone (interferon-alpha 2B 0 U)", "value": 11, "unit": "%"}, {"measurement": "Inhibition of replicon RNA accumulation", "setting": "[2]; Compound CU 0.333 μM alone (interferon-alpha 2B 0 U)", "value": 28, "unit": "%"}, {"measurement": "Inhibition of replicon RNA accumulation", "setting": "[2]; Compound CU 1 μM alone (interferon-alpha 2B 0 U)", "value": 88, "unit": "%"}, {"measurement": "Inhibition of replicon RNA accumulation", "setting": "[2]; Compound CU 3 μM alone (interferon-alpha 2B 0 U)", "value": 98, "unit": "%"}, {"measurement": "IC50", "setting": "[2]; Hepatitis C virus, Huh-7, 48 h, Compound CU as single drug treatment, initial experiment, replicon RNA accumulation 48 h", "value": 480, "unit": "nM"}, {"measurement": "IC50", "setting": "[2]; [4]", "value": 469, "unit": "nM"}, {"measurement": "IC50", "setting": "[2]; [5]", "value": "446 nM and 587 nM and 633 nM and 605 nM and 466 nM"}]}, {"smiles": "CCC[C@H](NC(=O)C1[C@H]2CCC[C@H]2CN1C(=O)[C@@H](NC(=O)[C@@H](NC(=O)[C@@H](C)NC(=O)OC)C1CCCCC1)C(C)(C)C)C(=O)C(=O)NC1CC1", "note": "(stereo partly shown) [Compound EC]", "values": [{"measurement": "CC50", "setting": "[1]; HCV replicon cells (Huh7)", "value": "> 50000", "unit": "nM"}, {"measurement": "IC50", "setting": "[2]; [4]", "value": 384, "unit": "nM"}, {"measurement": "IC50", "setting": "[2]; [5]", "value": 312, "unit": "nM"}]}, {"smiles": "CCC[C@@H](NC(=O)[C@@H]1[C@H]2CCCC2CN1C(=O)[C@@H](NC(=O)[C@H](NC(=O)c1cnccn1)C1CCCCC1)[C@H](C)CC)C(=O)C(=O)NC1CC1", "note": "(stereo partly shown) [Compound EP]", "values": [{"measurement": "CC50", "setting": "[1]", "value": "> 10000", "unit": "nM"}, {"measurement": "IC50", "setting": "[2]; [4]", "value": 426, "unit": "nM"}]}, {"smiles": "NC(=O)c1ncn([C@@H]2O[C@H](CO)[C@@H](O)[C@H]2O)n1", "note": "[Ribavirin, reference compound]", "values": [{"measurement": "IC50", "setting": "[2]; [4]", "value": 145000, "unit": "nM"}, {"measurement": "IC50", "setting": "[2]; Hepatitis C virus, Huh-7, read-out: uncorrected IC50 (Avg. Inh original), not corrected for cytotoxicity", "value": "~80000", "unit": "nM"}, {"measurement": "reduction of accumulation of HCV replicon RNA (in words)", "setting": "[2]; compound alone", "value": "marginally effective"}, {"measurement": "cytotoxicity (GAPDH mRNA levels, TaqMan RT-PCR)", "setting": "[3]", "value": "significant Ribavirin-induced cytotoxicity"}]}]}
